Experiments:
BlaR-CTD receptor [1] = target: T1, BlaR-CTD receptor (Bacillus licheniformis, UniProt P12287); assay: 3-minute rapid test: BlaR-CTD coupled to gold beads, membrane test device, milk; format: binding; details: test carried out in 3 minutes, 47° C.; positive when 1st band less intense than 2nd band
T1 construct: uses the BlaR-CTD receptor coupled to gold beads
Description: (§1) This example illustrates the detection in milk of antibiotics containing a β-lactam ring, which are controlled by the health authorities. The test described in this example uses the BlaR-CTD receptor coupled to gold beads which serve as labelling agents, and uses a support in the form of a test device comprising a solid support to which membranes are attached.
7 samples of fresh milk containing 0; 1; 2; 3; 4; 5 and 6 ppb of penicillin G, respectively, are prepared. Each of these solutions is then analyzed in the following way:
(§2) A 200 μl aliquot sample of milk and 45.27 μl of solution prepared in Example 1.1.3 are taken and placed in a glass flask. This mixture is incubated for 1 minute at 47° C. A test device is taken and placed vertically in the glass flask such that the first end of the test device is in contact with the mixture and such that the second end rests on the wall of the glass flask. The mixture is left to migrate on the test device, while incubating the assembly for 2 minutes at 47° C.
(§3) An intensity value ranging from 0 to 10 is attributed to the bands detected, the value 10 being given to the most intense band and the value 0 being given to the least intense band. According to this scale, a value of 6 is assigned to the reference band. The intensity of the signal observed in the first band is inversely proportional to the amount of penicillin G present in the sample.
(§4) In this example, when the first band has an intesity less than that of the second band, the test is considered as being positive.

[2] = tested on: protein isolated from an antibiotic-sensitive microorganism, such as Bacillus stearothermophilus; details: Example 1 of European Patent Application 593 112; cited from earlier work
BlaR-CTD receptor [3] = target: T1, BlaR-CTD receptor; assay: 5-minute test: BlaR-CTD coupled to gold beads, membrane test device, milk; format: binding; details: 47° C.; for concentration detected in a sample of milk: test carried out in 5 minutes, positive when 1st band less intense than 2nd band; for Intensity 1st band: 5-minute test, scale 0 to 10, reference band 6
Description: as §1
6 samples of fresh milk containing 0; 2; 4; 6; 8 and 10 ppb of cloxacillin, respectively, are prepared. Each of these solutions is then analyzed in the following way.
as §2, with “3 minutes” for “1 minute”
as §3, with “cloxacillin” for “penicillin G”
as §4

BlaR-CTD receptor [4] = target: T1, BlaR-CTD receptor; assay: 9-minute test: BlaR-CTD coupled to gold beads, membrane test device, milk; format: binding; details: test carried out in 9 minutes, 47° C.; positive when 1st band less intense than 2nd band
Description: as §1
6 samples of fresh milk containing 0; 4; 6; 8; 10 and 12 ppb of cephapirin, respectively, are prepared. Each of these solutions is then analyzed in the following way.
as §2, with “7 minutes” for “1 minute”
as §3, with “cephapirin” for “penicillin G”
as §4

[5] = target: T2, BlaR-CTD receptor in the form of two fusion proteins with alkaline phosphatase and peroxidase (Bacillus licheniformis, UniProt P12287); assay: Example 3: BlaR-CTD fusion proteins with alkaline phosphatase and peroxidase, cephalosporin C microplate, milk; format: binding; details: absorbance at 405 nm, 47° C., at the control thresholds required by the US authorities
T2 construct: uses the BlaR-CTD receptor in the form of two fusion proteins with alkaline phosphatase and peroxidase, respectively; alkaline phosphatase, chemically coupled (Boehringer-Mannheim 1464752); peroxidase, chemically coupled (Boehringer-Mannheim 1428861)
Excerpt: This example illustrates the detection in milk of 3 antibiotics containing a β-lactam ring which are controlled by the health authorities. The test described in this example uses the BlaR-CTD receptor in the form of two fusion proteins with alkaline phosphatase and peroxidase, respectively, and uses a support in the form of a microplate.
Polystyrene microplates with high protein adsorption, of the brand name NUNK (Immuno Plate: Maxisorp type) or of the brand name GREINER (microlon 600, reference 705071), are used. The microplate cuvettes are washed with 150 mM, pH 7.2 PBS buffer. Next, an aliquot of the solution prepared in Example 3.3.1. is incubated for 24 hours at 4° C. in the cuvettes. After incubation, the cuvettes are washed three times with 150 mM, pH 7.2 PBS buffer, 0.1% Tween-20. The tube is then saturated for two hours at 20° C. with 150 mM, pH 7.2 PBS saturation buffer, 5% BSA. After washing three times with washing buffer, the tubes are dried and stored at 4° C. away from moisture.
For the cuvettes intended for the BlaR-CTD-alkaline phosphatase recognition agent, the washing buffer used is 1 M, pH 9.8 diethanolamine, 0.5 mM MgCl2: for the cuvettes intended for the BlaR-CTD-peroxidase recognition agent, the washing buffer used is 50 mM, pH 5 potassium phosphate.
1.4 picomol of labelled recognition agent are incubated in the presence of 100 μl of doped milk for 5 minutes at 47° C. The milk is transferred using a pipette into a cuvette which has been pretreated as indicated in Example 2.3. The milk is then incubated for 2 minutes at 47° C. […] The plate is then placed in an automatic spectrophotometer for ELISA plates, the wavelength being set at 405 nm.

T1 sequence (P12287 354-601): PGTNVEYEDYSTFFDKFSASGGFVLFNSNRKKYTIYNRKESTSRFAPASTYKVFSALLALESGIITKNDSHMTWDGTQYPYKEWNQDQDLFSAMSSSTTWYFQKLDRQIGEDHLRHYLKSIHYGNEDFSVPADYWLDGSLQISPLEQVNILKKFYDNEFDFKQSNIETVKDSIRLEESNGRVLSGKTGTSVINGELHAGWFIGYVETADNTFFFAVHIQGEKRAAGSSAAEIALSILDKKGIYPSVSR
T2 sequence (P12287 354-601): as above

Row | SMILES | concentration detected in a sample of milk (BlaR-CTD receptor [1]) | concentration detected in a sample of milk (BlaR-CTD receptor [3]) | concentration detected in a sample of milk (BlaR-CTD receptor [4]) | further results
1 | CC1(C)S[C@@H]2[C@H](NC(=O)[C@H](N)c3ccc(O)cc3)C(=O)N2[C@H]1C(=O)O [amoxicillin] | 5 ppb | 4 ppb | 4 ppb | concentration detected [2]: 5 ppb
2 | CC1(C)S[C@@H]2[C@H](NC(=O)[C@H](N)c3ccccc3)C(=O)N2[C@H]1C(=O)O [ampicillin] | 5 ppb | 4 ppb | 4 ppb | concentration detected [2]: 10 ppb
3 | Cc1nnc(SCC2=C(C(=O)O)N3C(=O)[C@@H](NC(=O)Cn4cnnn4)[C@H]3SC2)s1 [cefazoline] |  | 60 ppb | 45 ppb | 
4 | CO/N=C(\C(=O)N[C@@H]1C(=O)N2C(C(=O)[O-])=C(C[n+]3cccc4c3CCCC4)CS[C@H]12)c1csc(N)n1 [cefquinone] |  | less than 20 ppb |  | 
5 | Cc1onc(-c2ccccc2Cl)c1C(=O)N[C@@H]1C(=O)N2[C@@H]1SC(C)(C)[C@@H]2C(=O)O [cloxacillin] | less than 10 ppb | less than 4 ppb | 4 ppb | Intensity 1st band (BlaR-CTD receptor [3]; 2 ppb cloxacillin in milk): 6; Intensity 1st band (BlaR-CTD receptor [3]; 4 ppb cloxacillin in milk): 5; Intensity 1st band (BlaR-CTD receptor [3]; 6 ppb cloxacillin in milk): 3; Intensity 1st band (BlaR-CTD receptor [3]; 8 ppb cloxacillin in milk): 3; Intensity 1st band (BlaR-CTD receptor [3]; 10 ppb cloxacillin in milk): 3; concentration detected in milk [5]: 10 ppb
6 | Cc1onc(-c2c(Cl)cccc2Cl)c1C(=O)N[C@@H]1C(=O)N2[C@@H]1SC(C)(C)[C@@H]2C(=O)O [dicloxacillin] |  | 8 ppb |  | 
7 | CCOc1ccc2ccccc2c1C(=O)N[C@@H]1C(=O)N2[C@@H]1SC(C)(C)[C@@H]2C(=O)O [nafcillin] |  | 20 ppb |  | 
8 | Cc1onc(-c2ccccc2)c1C(=O)N[C@@H]1C(=O)N2[C@@H]1SC(C)(C)[C@@H]2C(=O)O [oxacillin] |  | 8 ppb |  | 

Reference: patent US8106155B2, “Test kit for determining process for determining antibiotics containing a beta-lactam ring in a biological fluid” (Neogen Corporation, priority 1998, dated 2012)
